Assay results published in EP4570802A1, “SALT TYPE AND CRYSTAL FORM OF BENZAZEPINE FUSED RING COMPOUND AND USE THEREOF” (SHANGHAI JEYOU PHARMACEUTICAL CO., LTD., priority 2022, dated 2024).
≈ marks a conversion by molar mass, not a printed value. Where a name gives a salt, the structure may show the parent alone. Read-outs that look alike come from different tables or passages of the source.

What was measured:
[1] = Solubility test in biological media (dynamic solubility in FaSSIF, FeSSIF, FaSSGF; pH of the 24-hour supernatant; XRPD of remaining solid); format: physicochemical; conditions: for Final pH: 24-hour supernatant; for solubility at 0.5 h: read-out: Solubility (mg/mL) 0.5 h; for solubility at 2 h: read-out: Solubility (mg/mL) 2h; for solubility at 24 h: read-out: Solubility (mg/mL) 24 h; for XRPD for remaining solid: remaining solid after 24 hours; for Solubility (mg/mL) 0.5 h: 30 min; for Solubility (mg/mL) 2h: 120 min; for Solubility (mg/mL) 24 h: 1440 min
Protocol: Samples of different crystal forms were added to biological media and shaken at a constant temperature of 37°C for 24 hours, followed by sampling at 0.5 hours, 2 hours, and 24 hours, respectively, and the sampled solution was filtered using a 0.22 µm hydrophilic filter membrane. Some of the samples with higher concentrations were appropriately diluted with a diluent, and the signal peak area of the solution was measured by HPLC. Finally, the concentration of the compound in the solution was calculated based on the peak area, the HPLC standard curve of the starting material, and the dilution factor. In addition, the 24-hour supernatant was tested for pH, and the remaining solid was subjected to XRPD testing.

[2] = Stability study (solid state, XRPD characterization after 7 days and 15 days); format: physicochemical; conditions: for Results after 7 days: XRPD characterization after 7 days; for Results after 15 days: XRPD characterization after 15 days
Protocol: Approximately 20 mg of sample was weighed into a weighing bottle and exposed to high temperature (60°C), high humidity (25°C/92.5% RH), light (25°C/4500 Lux), and accelerated (40°C/75% RH) conditions, followed by sampling for XRPD characterization after 7 days and 15 days.
Samples were taken for XRPD characterization after 7 days and 15 days. 62 to 65. […]

[3] = FaSSGF, listed as Crystal form C of fumarate
[4] = FaSSIF, listed as Crystal form C of fumarate
[5] = FeSSIF, listed as Crystal form C of fumarate
[6] = FaSSGF, listed as Crystal form N
[7] = FaSSGF, pH 1.6, 37°C, listed as Crystal form N
[8] = FaSSIF, listed as Crystal form N
[9] = FaSSIF, pH 6.5, 37°C, listed as Crystal form N
[10] = FeSSIF, listed as Crystal form N
[11] = FeSSIF, pH 5.0-5.1, 37°C, listed as Crystal form N
[12] = Water, listed as Crystal form N
[13] = FaSSGF, listed as Crystal form S
[14] = FaSSGF, pH 1.6, 37°C, listed as Crystal form S
[15] = FaSSIF, listed as Crystal form S
[16] = FaSSIF, pH 6.5, 37°C, listed as Crystal form S
[17] = FeSSIF, listed as Crystal form S
[18] = FeSSIF, pH 5.0-5.1, 37°C, listed as Crystal form S
[19] = Water, listed as Crystal form S

Which “Final pH” value [1, 3] does the source give for O=C(Nc1ccc(C(=O)N2CC[C@@H]3CCN[C@H]3c3cc(Cl)ccc32)cn1)c1ccccc1C(F)(F)F [crystal form C of fumarate] here?
The value was 1.7.

And the solubility at 0.5 h ([1]; FaSSGF, pH 1.6, 37°C)?
The solubility at 0.5 h was 0.65 mg/mL.

What about the solubility at 2 h ([1]; FaSSGF, pH 1.6, 37°C) of the same molecule?
The solubility at 2 h was 0.7 mg/mL.

What about the solubility at 24 h ([1]; FaSSGF, pH 1.6, 37°C) of the same molecule?
Its solubility at 24 h is 0.71 mg/mL.

What about the “XRPD for remaining solid” value [1, 3] of the same molecule?
Its value is “Obvious change”.

And the “Final pH” value [1, 4]?
Its value is 6.1.

What about the solubility at 0.5 h ([1]; FaSSIF, pH 6.5, 37°C) of the same molecule?
The solubility at 0.5 h was 0.38 mg/mL.

What about the solubility at 2 h ([1]; FaSSIF, pH 6.5, 37°C) of the same molecule?
The solubility at 2 h was 0.35 mg/mL.

And the solubility at 24 h ([1]; FaSSIF, pH 6.5, 37°C)?
The solubility at 24 h was 0.28 mg/mL.

What about the “XRPD for remaining solid” value [1, 4] of the same molecule?
The value was “Crystal form C of fumarate + new peak”.

And the “Final pH” value [1, 5]?
Its value is 5.0.

And the solubility at 0.5 h ([1]; FeSSIF, pH 5.0-5.1, 37°C)?
Its solubility at 0.5 h is 0.66 mg/mL.

What about the solubility at 2 h ([1]; FeSSIF, pH 5.0-5.1, 37°C) of the same molecule?
Its solubility at 2 h is 0.74 mg/mL.

And the solubility at 24 h ([1]; FeSSIF, pH 5.0-5.1, 37°C)?
Its solubility at 24 h is 0.68 mg/mL.

And the “XRPD for remaining solid” value [1, 5]?
Its value is “Crystal form C of fumarate + new peak”.

For O=C(Nc1ccc(C(=O)N2CC[C@@H]3CCN[C@H]3c3cc(Cl)ccc32)cn1)c1ccccc1C(F)(F)F [crystal form N], which “Results after 7 days” value ([2]; Accelerated, 40°C/75% RH) is on record?
Its value is “No change”.

What about the “Results after 15 days” value ([2]; Accelerated, 40°C/75% RH) of the same molecule?
Its value is “No change”.

What about the “Results after 7 days” value ([2]; High humidity, 25°C/92.5% RH) of the same molecule?
The value was “No change”.

What about the “Results after 15 days” value ([2]; High humidity, 25°C/92.5% RH) of the same molecule?
Its value is “No change”.

And the “Results after 7 days” value ([2]; Light, 25°C/4500 Lux)?
The value was “No change”.

And the “Results after 15 days” value ([2]; Light, 25°C/4500 Lux)?
Its value is “No change”.

And the “Final pH” value [1, 6]?
Its value is 2.0.

What about the “Solubility (mg/mL) 0.5 h” value [1, 7] of the same molecule?
The value was > 7.61 mg/mL.

And the “Solubility (mg/mL) 2h” value [1, 7]?
Its value is > 7.89 mg/mL.

And the “Solubility (mg/mL) 24 h” value [1, 7]?
Its value is > 7.98 mg/mL.

And the “XRPD for remaining solid” value [1, 6]?
The value was “No solid”.

What about the “Final pH” value [1, 8] of the same molecule?
Its value is 6.5.

And the “Solubility (mg/mL) 0.5 h” value [1, 9]?
Its value is 0.06 mg/mL (≈ 117 µM).

And the “Solubility (mg/mL) 2h” value [1, 9]?
Its value is 0.07 mg/mL (≈ 136 µM).

And the “Solubility (mg/mL) 24 h” value [1, 9]?
Its value is 0.08 mg/mL (≈ 155 µM).

And the “XRPD for remaining solid” value [1, 8]?
The value was “Crystal form N”.

And the “Final pH” value [1, 10]?
Its value is 5.1.

What about the “Solubility (mg/mL) 0.5 h” value [1, 11] of the same molecule?
Its value is 0.80 mg/mL (≈ 1550 µM).

And the “Solubility (mg/mL) 2h” value [1, 11]?
The value was 0.97 mg/mL (≈ 1880 µM).

And the “Solubility (mg/mL) 24 h” value [1, 11]?
The value was 0.94 mg/mL (≈ 1830 µM).

And the “XRPD for remaining solid” value [1, 10]?
The value was “Crystal form N”.

And the “Final pH” value [1, 12]?
The value was 7.5.

What about the “Solubility (mg/mL) 2h” value ([1]; Water, 37°C, listed as Crystal form N) of the same molecule?
The value was 0.011 mg/mL (≈ 21.4 µM).

What about the “XRPD for remaining solid” value [1, 12] of the same molecule?
Its value is “Crystal form N”.

And the solubility at 0.5 h ([1]; water, 37°C)?
Its solubility at 0.5 h is 0.004 mg/mL (≈ 7.77 µM).

And the solubility at 24 h ([1]; water, 37°C)?
The solubility at 24 h was 0.004 mg/mL (≈ 7.77 µM).

For O=C(Nc1ccc(C(=O)N2CC[C@@H]3CCN[C@H]3c3cc(Cl)ccc32)cn1)c1ccccc1C(F)(F)F [crystal form S], which “Results after 7 days” value ([2]; High temperature, 60°C) is on record?
The value was “No change”.

What about the “Results after 15 days” value ([2]; High temperature, 60°C) of the same molecule?
Its value is “No change”.

What about the “Final pH” value [1, 13] of the same molecule?
Its value is 2.0.

And the “Solubility (mg/mL) 0.5 h” value [1, 14]?
Its value is > 7.19 mg/mL.

What about the “Solubility (mg/mL) 2h” value [1, 14] of the same molecule?
Its value is > 7.35 mg/mL.

What about the “Solubility (mg/mL) 24 h” value [1, 14] of the same molecule?
The value was 2.15 mg/mL (≈ 4180 µM).

What about the “XRPD for remaining solid” value [1, 13] of the same molecule?
The value was “Amorphous*”.

What about the “Final pH” value [1, 15] of the same molecule?
The value was 6.5.

And the “Solubility (mg/mL) 0.5 h” value [1, 16]?
Its value is 0.03 mg/mL (≈ 58.3 µM).

And the “Solubility (mg/mL) 2h” value [1, 16]?
Its value is 0.04 mg/mL (≈ 77.7 µM).

What about the “Solubility (mg/mL) 24 h” value [1, 16] of the same molecule?
The value was 0.04 mg/mL (≈ 77.7 µM).

And the “XRPD for remaining solid” value [1, 15]?
The value was “Crystal form S”.

And the “Final pH” value [1, 17]?
The value was 5.1.

And the “Solubility (mg/mL) 0.5 h” value [1, 18]?
The value was 0.40 mg/mL (≈ 777 µM).

And the “Solubility (mg/mL) 2h” value [1, 18]?
The value was 0.44 mg/mL (≈ 854 µM).

What about the “Solubility (mg/mL) 24 h” value [1, 18] of the same molecule?
The value was 0.43 mg/mL (≈ 835 µM).

What about the “XRPD for remaining solid” value [1, 17] of the same molecule?
The value was “Crystal form S”.

And the “Final pH” value [1, 19]?
The value was 7.4.

And the “Solubility (mg/mL) 2h” value ([1]; Water, 37°C, listed as Crystal form S)?
The value was 0.001 mg/mL (≈ 1.94 µM).

What about the “XRPD for remaining solid” value [1, 19] of the same molecule?
Its value is “Crystal form S”.
